Results on eight compounds are retold here after patent US6518243B1, “Desleucyl glycopeptide antibiotics and methods of making same” (Trustees of Princeton University, priority 1999, dated 2003).

One test has as its system E. Faecalis CL 4877. Description: MIC determination in BHI media, OD600. The test is classed as cell-based. The conditions noted are these: BHI + 0.1% casamino acids, 18 hours at 37° C., ≧90% OD600 inhibition. An outline of the steps:
(§1)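 Inoculum ~5×10^5 CFU/ml from log-phase culture; compounds in DMSO, serial dilution; 18 h, 37° C; plate read for growth, MIC called per concentration.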

The test system of another test is E. faecium ATCC 49624. Nature of the test: MIC determination in BHI media, OD600. Type of test: cell-based. The conditions noted are these: BHI + 0.1% casamino acids, 18 hours at 37° C., ≧90% OD600 inhibition. An outline of the steps:
as §1

In a further test the test system is S. Aureus ATCC 33591. Description: MIC determination in BHI media, OD600. Type of test: cell-based. As to conditions: BHI + 0.1% casamino acids, 18 hours at 37° C., ≧90% OD600 inhibition. An outline of the steps:
as §1

Another test has as its system S aureus ATCC 29213. Description: MIC determination in BHI media, OD600. The test is classed as cell-based. The conditions noted are these: BHI + 0.1% casamino acids, 18 hours at 37° C., ≧90% OD600 inhibition. An outline of the steps: as §1
For the next test, the system named is E. faceium (ATCC 49624). Description: Zone of inhibition screen, 96 well agar array format. The test is classed as cell-based, E. faecium. The conditions noted are these: zone of inhibition relative to 1 mg/ml stock solution of p-chlorobiphenylvancomycin. An outline of the steps: (§2)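 Agar-array screen, 96-well; single compounds vs. strain panel (panel also incl. E. faecium ATCC 49624); antibacterial activity scored.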

For the next test, the system named is E. faecalis ATCC 29212. Nature of the test: MIC determination in BHI media, OD600. The test is classed as cell-based. The conditions noted are these: BHI + 0.1% casamino acids, 18 hours at 37° C., ≧90% OD600 inhibition. An outline of the steps:
as §1

The test system of a further test is E. faecium CL 4931. Nature of the test: MIC determination in BHI media, OD600. Type of test: cell-based. The conditions noted are these: BHI + 0.1% casamino acids, 18 hours at 37° C., ≧90% OD600 inhibition. Summed up: as §1
The next test has as its system S. aureus (ATCC 29213). Nature of the test: Zone of inhibition screen, 96 well agar array format. The test is classed as cell-based. The arrangement: scale not given here. As to conditions: zone of inhibition relative to 1 mg/ml stock solution of p-chlorobiphenylvancomycin. Summed up:
as §2

The next test relates to E. faecalis (CL 4877). The test is described as above. The test is classed as cell-based. Details: scale not given here. As to conditions: zone of inhibition relative to 1 mg/ml stock solution of p-chlorobiphenylvancomycin. Summed up: as §2
Test [1] deals with S. epidermidis (ATCC 12228). The test is described as above. The arrangement: scale not given here. The conditions noted are these: zone of inhibition relative to 1 mg/ml stock solution of p-chlorobiphenylvancomycin. Type of test: cell-based. Summed up:
as §2
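For zone score, E. faecium ATCC 49624 in this document: score 3 means fourfold and score 4 sixteenfold the reference zone size.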

`CNC(C(=O)NC1C(=O)NC(CC(N)=O)C(=O)NC2C(=O)NC3C(=O)NC(C(=O)NC(C(=O)O)c4cc(O)cc(O)c4-c4cc3ccc4O)C(O)c3ccc(c(Cl)c3)Oc3cc2cc(c3OC2OC(CO)C(O)C(O)C2OC2CC(C)(NCc3ccc(-c4ccc(Cl)cc4)cc3)C(O)C(C)O2)Oc2ccc(cc2Cl)C1O)C(C)C` (stereo not shown) [Compound 340]: the MIC E. faecalis CL 4877 in the test with E. Faecalis CL 4877 came out at 25 µg/mL. Moreover, the MIC E. faecium ATCC 49624 in the test on E. faecium ATCC 49624 was 0.39 µg/mL. Also, the MIC S. aureus ATCC 33591 in the test on S. Aureus ATCC 33591 was found to be 0.39 µg/mL. Also, the MIC S. aureus ATCC 29213 with S aureus ATCC 29213 worked out at 0.39 µg/mL.
`CC(N)C(=O)NCC(=O)NC1C(=O)NC(CC(N)=O)C(=O)NC2C(=O)NC3C(=O)NC(C(=O)NC(C(=O)O)c4cc(O)cc(O)c4-c4cc3ccc4O)C(O)c3ccc(c(Cl)c3)Oc3cc2cc(c3OC2OC(CO)C(O)C(O)C2OC2CC(C)(NCc3ccc(-c4ccc(Cl)cc4)cc3)C(O)C(C)O2)Oc2ccc(cc2Cl)C1O` (stereo not shown) [Compound 36]: in the test with E. faceium (ATCC 49624), the “zone score, E. faecium ATCC 49624” value amounted to 2. For the same compound, in the test with E. faecium ATCC 49624, the MIC E. faecium ATCC 49624 came to 0.12 µg/mL. Further, in the test on S. Aureus ATCC 33591, the MIC S. aureus ATCC 33591 is 0.39 µg/mL. Besides, the MIC E. faecalis ATCC 29212 in the test with E. faecalis ATCC 29212 is 0.78 µg/mL. The MIC S. aureus ATCC 29213 in the test on S aureus ATCC 29213 was 0.39 µg/mL.
As to `CCCCC(N)C(=O)NC1C(=O)NC(CC(N)=O)C(=O)NC2C(=O)NC3C(=O)NC(C(=O)NC(C(=O)O)c4cc(O)cc(O)c4-c4cc3ccc4O)C(O)c3ccc(c(Cl)c3)Oc3cc2cc(c3OC2OC(CO)C(O)C(O)C2OC2CC(C)(NCc3ccc(-c4ccc(Cl)cc4)cc3)C(O)C(C)O2)Oc2ccc(cc2Cl)C1O` (stereo not shown) [Compound 42], in the test on E. faceium (ATCC 49624), the “zone score, E. faecium ATCC 49624” value worked out at 2. Moreover, in the test on E. faecium ATCC 49624, the MIC E. faecium ATCC 49624 came out at 0.39 µg/mL. The MIC S. aureus ATCC 33591 in the test with S. Aureus ATCC 33591 is 0.39 µg/mL. Besides, the MIC E. faecalis ATCC 29212 with E. faecalis ATCC 29212 worked out at 0.78 µg/mL. The MIC S. aureus ATCC 29213 with S aureus ATCC 29213 was 0.39 µg/mL.
For `CC1OC(OC2C(Oc3c4cc5cc3Oc3ccc(cc3Cl)C(O)C3NC(=O)C(NC(=O)C5NC(=O)C(CC(N)=O)NC(=O)C(NC(=O)C(N)CCCNC(=O)c5cnccn5)C(O)c5ccc(c(Cl)c5)O4)c4ccc(O)c(c4)-c4c(O)cc(O)cc4C(C(=O)O)NC3=O)OC(CO)C(O)C2O)CC(C)(NCc2ccc(-c3ccc(Cl)cc3)cc2)C1O` (stereo not shown) [Compound 83], the “zone score, E. faecium ATCC 49624” value with E. faceium (ATCC 49624) is listed as 2. The MIC E. faecium ATCC 49624 in the test with E. faecium ATCC 49624 is 0.25 µg/mL. Also, the MIC S. aureus ATCC 33591 in the test with S. Aureus ATCC 33591 came out at 0.78 µg/mL. The MIC E. faecalis ATCC 29212 with E. faecalis ATCC 29212 came to 0.78 µg/mL. Moreover, in the test on S aureus ATCC 29213, the MIC S. aureus ATCC 29213 turned out to be 0.39 µg/mL. The MIC E. faecium CL 4931 in the test on E. faecium CL 4931 was 25 µg/mL. The “zone score, S. aureus ATCC 29213” value in the test on S. aureus (ATCC 29213) is listed as 2.
For the compound `CC(NCC(N)C(=O)NC1C(=O)NC(CC(N)=O)C(=O)NC2C(=O)NC3C(=O)NC(C(=O)NC(C(=O)O)c4cc(O)cc(O)c4-c4cc3ccc4O)C(O)c3ccc(c(Cl)c3)Oc3cc2cc(c3OC2OC(CO)C(O)C(O)C2OC2CC(C)(NCc3ccc(-c4ccc(Cl)cc4)cc3)C(O)C(C)O2)Oc2ccc(cc2Cl)C1O)=C1C(=O)CC(C)(C)CC1=O` (stereo not shown) [Compound 56], the “zone score, E. faecium ATCC 49624” value in the test with E. faceium (ATCC 49624) is reported as 2. In addition, the MIC E. faecium ATCC 49624 with E. faecium ATCC 49624 was 0.12 µg/mL. The MIC S. aureus ATCC 33591 in the test on S. Aureus ATCC 33591 was found to be 0.25 µg/mL. Besides, in the test with E. faecalis ATCC 29212, the MIC E. faecalis ATCC 29212 is 0.78 µg/mL. Further, the MIC S. aureus ATCC 29213 with S aureus ATCC 29213 was determined as 0.25 µg/mL.
As for `CNC(COC(C)(C)C)C(=O)NC1C(=O)NC(CC(N)=O)C(=O)NC2C(=O)NC3C(=O)NC(C(=O)NC(C(=O)O)c4cc(O)cc(O)c4-c4cc3ccc4O)C(O)c3ccc(c(Cl)c3)Oc3cc2cc(c3OC2OC(CO)C(O)C(O)C2OC2CC(C)(NCc3ccc(-c4ccc(Cl)cc4)cc3)C(O)C(C)O2)Oc2ccc(cc2Cl)C1O` (stereo not shown) [Compound 526], the MIC E. faecium ATCC 49624 in the test with E. faecium ATCC 49624 was 0.25 µg/mL. In the test with S. Aureus ATCC 33591, the MIC S. aureus ATCC 33591 worked out at 0.39 µg/mL. The MIC E. faecalis ATCC 29212 in the test with E. faecalis ATCC 29212 is 0.78 µg/mL. The MIC S. aureus ATCC 29213 with S aureus ATCC 29213 is 0.39 µg/mL. Besides, the MIC E. faecium CL 4931 in the test with E. faecium CL 4931 was 25 µg/mL.
As for `CC(C)OCC(N)C(=O)NC1C(=O)NC(CC(N)=O)C(=O)NC2C(=O)NC3C(=O)NC(C(=O)NC(C(=O)O)c4cc(O)cc(O)c4-c4cc3ccc4O)C(O)c3ccc(c(Cl)c3)Oc3cc2cc(c3OC2OC(CO)C(O)C(O)C2OC2CC(C)(NCc3ccc(-c4ccc(Cl)cc4)cc3)C(O)C(C)O2)Oc2ccc(cc2Cl)C1O` (stereo not shown) [Compound 529], the MIC E. faecium ATCC 49624 in the test on E. faecium ATCC 49624 is 0.12 µg/mL. The MIC S. aureus ATCC 33591 with S. Aureus ATCC 33591 is 0.25 µg/mL. Moreover, the MIC E. faecalis ATCC 29212 in the test on E. faecalis ATCC 29212 was determined as 0.78 µg/mL. In the test on S aureus ATCC 29213, the MIC S. aureus ATCC 29213 was 0.25 µg/mL. Further, the MIC E. faecium CL 4931 in the test with E. faecium CL 4931 was determined as 25 µg/mL.
Take `CC1OC(OC2C(Oc3c4cc5cc3Oc3ccc(cc3Cl)C(O)C3NC(=O)C(NC(=O)C5NC(=O)C(CC(N)=O)NC(=O)C(NC(=O)C(N)CO)C(O)c5ccc(c(Cl)c5)O4)c4ccc(O)c(c4)-c4c(O)cc(O)cc4C(C(=O)O)NC3=O)OC(CO)C(O)C2O)CC(C)(NCc2ccc(-c3ccc(Cl)cc3)cc2)C1O` (stereo not shown) [Compound 88]: in the test on E. faceium (ATCC 49624), the “zone score, E. faecium ATCC 49624” value was 2. Besides, the MIC E. faecalis CL 4877 in the test with E. Faecalis CL 4877 is 25 µg/mL. For the same compound, the MIC E. faecium ATCC 49624 in the test with E. faecium ATCC 49624 is 0.78 µg/mL. Besides, the MIC S. aureus ATCC 29213 in the test with S aureus ATCC 29213 came out at 0.78 µg/mL. The “zone score, E. faecalis CL 4877” value with E. faecalis (CL 4877) came out at 2. For the same compound, the “zone score, S. aureus ATCC 29213” value with S. aureus (ATCC 29213) was 2. The “zone score, S. epidermidis ATCC 12228” value in test [1] turned out to be 2.
